In patent US7501430B2 (ArQule, Inc., priority 2006, dated 2009):

What follows are compounds tested against T1, mutant B-RAF (Homo sapiens, UniProt P15056, V600E) (assay: RAF biochemical assay (MEK-1 phosphorylation, anti-phospho MEK1/2 detection)). Settings: not given.
T1 construct: purchased Upstate (Charlottesville, Va.)
Experimental: Materials: The RAF kinases and the anti-phospho MEK1/2 antibody were from Upstate (Charlottesville, Va.). The RAF substrate used was full length N-terminal GST-MEK-1, which was expressed in E. coli and purified in-house by HPLC. All proteins were aliquoted and stored at −80° C.
Compounds were serially diluted in assay buffer containing 1% DMSO and 20 μL of test compound at a concentration 3-fold more than the final concentration, and were added to a polypropylene V-well reaction plate. Vehicle control wells received buffer only with DMSO at equivalent concentrations to the test wells. […] These reaction plates were incubated at room temperature for 30 minutes. Capture of MEK-1 was initiated by transferring 50 μl of the reaction mixture to a Nunc Maxisorp™ microplate that is designed for non-specific protein capture. After 30 minute capture of MEK-1 at room temperature, this plate was washed with TBST (6×200 μL/well) to fully terminate the reaction. The plate was then blocked for 1 hour by the addition of 100 μl/well of Superblock™ in phosphate buffered saline (PBS) blocking reagent. Plate was again washed with TBST (6 times with 200 μL/well), followed by the addition of 70 μL/well of Upstate anti-phospho MEK 1/2 diluted 1:1000 in Pierce Superblock (PBS). After a 60 minute incubation, this plate was washed with TBST (6 times with 200 μL/well), and 70 μL of the secondary antibody (Pierce Alkaline Phosphatase tagged goat anti-rabbit) prepared at 1:4000 in Superblock, were added. After a 45 minute incubation at room temperature, the wells of the microplate were washed with TBST (6 times with 200 μL/well), and thereafter 100 μl/well of Attophos™ fluorescent alkaline phosphatase substrate was added according to the manufacturer's instructions (JBL Scientific).

T1 sequence (P15056 whole entry V600E): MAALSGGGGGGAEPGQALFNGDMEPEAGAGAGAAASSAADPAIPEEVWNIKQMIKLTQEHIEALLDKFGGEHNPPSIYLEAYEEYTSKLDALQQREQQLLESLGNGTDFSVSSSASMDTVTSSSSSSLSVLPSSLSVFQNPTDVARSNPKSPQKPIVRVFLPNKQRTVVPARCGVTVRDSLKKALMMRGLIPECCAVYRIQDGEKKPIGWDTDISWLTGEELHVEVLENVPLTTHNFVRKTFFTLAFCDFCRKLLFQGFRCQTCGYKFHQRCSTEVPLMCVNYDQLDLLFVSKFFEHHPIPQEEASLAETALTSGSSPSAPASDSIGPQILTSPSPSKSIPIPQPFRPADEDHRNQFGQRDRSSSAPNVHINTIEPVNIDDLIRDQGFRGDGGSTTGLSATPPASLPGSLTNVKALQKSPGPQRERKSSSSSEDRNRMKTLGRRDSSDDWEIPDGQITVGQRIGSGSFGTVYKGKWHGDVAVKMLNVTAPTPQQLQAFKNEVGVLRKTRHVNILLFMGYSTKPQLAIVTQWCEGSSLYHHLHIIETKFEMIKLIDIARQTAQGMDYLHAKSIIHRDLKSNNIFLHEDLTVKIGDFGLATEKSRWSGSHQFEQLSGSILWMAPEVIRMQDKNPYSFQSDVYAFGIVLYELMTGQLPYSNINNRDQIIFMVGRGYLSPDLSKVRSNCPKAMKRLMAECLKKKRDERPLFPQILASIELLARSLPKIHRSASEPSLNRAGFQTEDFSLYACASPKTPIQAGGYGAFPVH

Row | SMILES | IC50
1 | CC(C)CC(=O)N1CCC[C@@H](Nc2nccc(-c3c(-c4ccc(F)cc4)nc4occn34)n2)C1 [Example 40, 4-[6-(4-fluorophenyl)imi-dazo[2,1-b][1,3]oxazol-5-yl]-N-[(3R)-1-(3-methylbuta-noyl)piperidin-3-yl]pyrimidin-2-amine] | 142 nM
2 | O=C([C@@H]1CCCN1)N1CCC[C@@H](Nc2nccc(-c3c(-c4ccc(F)cc4)nc4occn34)n2)C1 [Example 37, 4-[6-(4-fluorophenyl)imi-dazo[2,1-b][1,3]oxazol-5-yl]-N-[(3R)-1-L-prolylpiperidin-3-yl]pyrimidin-2-amine] | > 5000 nM

Same assay, conditions: @ 2 uM

Row | inhibition at 2 µM | SMILES
3 | 9% | O=[N+]([O-])c1ccc(-c2nc3sccn3c2-c2ccnc(NC3CCNCC3)n2)cc1 [Example 247, 4-[6-(4-nitrophenyl)imidazo[2,1-b][1,3]thiazol-5-yl]-N-piperidin-4-ylpyrimidin-2-amine]

Same assay, conditions: @ 3 uM

Row | inhibition at 3 µM | SMILES
4 | 2% | c1ccc(-c2ccc(-c3nc4sccn4c3-c3ccnc(NC4CCNCC4)n3)cc2)cc1 [Example 250, 4-(6-biphenyl-4-ylimidazo[2,1-b][1,3]thiazol-5-yl)-N-piperidin-4-ylpyrimidin-2-amine]

Same assay, conditions: @ 10 uM

Row | SMILES | Mutant B-RAF % inhibition
5 | O=S(=O)(c1ccccc1)N1CCC[C@@H](Nc2nccc(-c3c(-c4ccc(F)cc4)nc4occn34)n2)C1 [Example 42, 4-[6-(4-fluorophenyl)imi-dazo[2,1-b][1,3]oxazol-5-yl]-N-[(3R)-1-(phenylsulfonyl)piperidin-3-yl]pyrimidin-2-amine] | 68 @ 10 uM %

Same assay, conditions: @ 10 uM; read-out: Mutant B-RAF % inhibition

Row | SMILES | inhibition at 10 µM
6 | CC(C)CC(=O)N1CCC[C@@H](Nc2nccc(-c3c(-c4cccc(O)c4)nc4sccn34)n2)C1 [Example 116, 3-[5-(2-{[(3R)-1-(3-methylbutanoyl)piperidin-3-yl]amino}pyrimidin-4-yl)imidazo[2,1-b][1,3]thiazol-6-yl]phenol] | 52%
7 | NCCC(=O)Nc1ccccc1-c1nc2sccn2c1-c1ccnc(N[C@@H]2CCCN(S(=O)(=O)c3ccc(Cl)cc3)C2)n1 [Example 138, N~1~-(2-{5-[2-({(3R)-1-[(4-chlorophenyl)sulfonyl]piperidin-3-yl}amino)pyrimidin-4-yl]imidazo[2,1-b][1,3]thiazol-6-yl}phenyl)-beta-alaninamide] | 82%
8 | CCN1CCC(Nc2nccc(-c3c(-c4ccc(F)cc4)nc4sccn34)n2)CC1 [Example 154, N-(1-ethylpiperidin-4-yl)-4-[6-(4-fluorophenyl)imidazo[2,1-b][1,3]thiazol-5-yl]pyrimidin-2-amine] | 36%

Now from value to compound:

Row | inhibition at 10 µM | SMILES
9 | 5% | O=S(=O)(c1ccc(Cl)cc1)N1CCC(Nc2nccc(-c3c(-c4ccc(O)cc4)nc4sccn34)n2)CC1 [Example 264, 4-{5-[2-({1-[(4-chlorophenyl)sulfonyl]piperidin-4-yl}amino)pyrimidin-4-yl]imidazo[2,1-b][1,3]thiazol-6-yl}phenol]
10 | 67% | Cc1cn2c(-c3ccnc(NC4CCN(C(=O)NCc5ccco5)CC4)n3)c(-c3ccc(F)cc3)nc2s1 [Example 242, 4-({4-[6-(4-fluorophenyl)-2-methylimidazo[2,1-b][1,3]thiazol-5-yl]pyrimidin-2-yl}amino)-N-(2-furylmethyl)piperidine-1-carboxamide]
11 | 10% | O=C(Nc1ccccc1F)N1CCC(Nc2nccc(-c3c(-c4ccc(F)cc4)nc4occn34)n2)CC1 [Example 187, N-(2-fluorophenyl)-4-({4-[6-(4-fluorophenyl)imidazo[2,1-b][1,3]oxazol-5-yl]pyrimidin-2-yl}amino)piperidine-1-carboxamide]
12 | 43% | COc1cccc(-c2nc3sccn3c2-c2ccnc(N[C@@H]3CCCN(C[C@@H]4COC(C)(C)O4)C3)n2)c1 [Example 146, N-((3R)-1-{[(4R)-2,2-dimethyl-1,3-dioxolan-4-yl]methyl}piper-idin-3-yl)-4-[6-(3-methoxy-phenyl)imidazo[2,1-b][1,3]thiazol-5-yl]pyrimidin-2-amine]

Same assay, conditions: read-out: Mutant B-RAF IC50

Row | SMILES | IC50
13 | CC(C)(C)NC(=O)N1CCC(Nc2nccc(-c3c(-c4ccc(F)cc4)nc4occn34)n2)CC1 [Example 185, N-(tert-butyl)-4-({4-[6-(4-fluorophenyl)imidazo[2,1-b][1,3]oxazol-5-yl]pyrimidin-2-yl}amino)piperidine-1-carboxamide] | 1580 nM
14 | Fc1ccc(-c2nc3sccn3c2-c2ccnc(NC3CNC3)n2)cc1 [Example 287, N-azetidin-3-yl-4-[6-(4-fluorophenyl)imidazo[2,1-b][1,3]thiazol-5-yl]pyrimidin-2-amine] | 2490 nM
15 | COc1cccc(-c2nc3sccn3c2-c2ccnc(N[C@@H]3CCCN(C(=O)NC4CCCCC4)C3)n2)c1 [Example 328, (3R)-N-cyclohexyl-3-({4-[6-(3-methoxyphenyl)imidazo[2,1-b][1,3]thiazol-5-yl]pyrimidin-2-yl}amino)piperidine-1-carboxamide] | 4000 nM
16 | N#Cc1cccc(-c2nc3sccn3c2-c2ccnc(N[C@@H]3CCCN(S(=O)(=O)c4ccc(C(=O)O)cc4)C3)n2)c1 [Example 129] | > 3000 nM
17 | NC(=O)Oc1cccc(-c2nc3sccn3c2-c2ccnc(N[C@@H]3CCCN(S(=O)(=O)c4ccc(Cl)cc4)C3)n2)c1 [Example 364, 3-{5-[2-({(3R)-1-[(4-chlorophenyl)sulfonyl]piperidin-3-yl}amino)pyrimidin-4-yl]imidazo[2,1-b][1,3]thiazol-6-yl}phenyl carbamate] | 7 nM
18 | CCNC(=O)N1CCC(Nc2nccc(-c3c(-c4ccc(F)cc4)nc4sccn34)n2)CC1 [Example 294, N-ethyl-4-({4-[6-(4-fluorophenyl)imidazo[2,1-b][1,3]thiazol-5-yl]pyrimidin-2-yl}amino)piperidine-1-carboxamide] | 41 nM
19 | COc1cccc(-c2nc3sccn3c2-c2ccnc(N[C@@H]3CCCN(S(=O)(=O)c4ccc(F)cc4)C3)n2)c1 [Example 82, N-{(3R)-1-[(4-fluorophenyl)sulfonyl]piper-idin-3-yl}-4-(6-(3-methoxyphenyl)imidazo[2,1-b][1,3]thiazot-5-yl]pyrimidin-2-amine] | 192 nM
20 | O=S(=O)(c1cccc(O)c1)N1CCC[C@@H](Nc2nccc(-c3c(-c4cccc(O)c4)nc4sccn34)n2)C1 [Example 143, 3-{[(3R)-3-({4-[6-(3-hydroxyphenyl)imidazo[2,1-b][1,3]thiazol-5-yl]pyrimidin-2-yl}amino)piperidin-1-yl]sulfonyl}phenol] | 19 nM
21 | Cc1cn2c(-c3ccnc(NC4CCN(S(=O)(=O)c5ccc(Cl)cc5)CC4)n3)c(-c3ccc(F)cc3)nc2s1 [Example 257, N-{1-[(4-chlorophenyl)sulfonyl]piperidin-4-yl}-4-[6-(4-fluorophenyl)-2-methylimidazo[2,1-b][1,3]thiazol-5-yl]pyrimidin-2-amine] | 73 nM

Other lines, results leading:

Row | IC50 | SMILES
22 | 963 nM | O=S(=O)(c1ccc(F)c(Cl)c1)N1CCC[C@@H](Nc2nccc(-c3c(-c4ccc(F)cc4)nc4occn34)n2)C1 [Example 47, N-{(3R)-1-[(3-chloro-4-fluorophenyl)sulfonyl]piper-idin-3-yl}-4-[6-(4-fluorophenyl)imidazo[2,1-b][1,3]oxazol-5-yl]pyrimidin-2-amine]
23 | 2450 nM | CSc1ccc(NC(=O)N2CCC[C@@H](Nc3nccc(-c4c(-c5cccc(O)c5)nc5sccn45)n3)C2)cc1 [Example 344, (3R)-3-({4-[6-(3-hydroxyphenyl)imidazo[2,1-b][1,3]thiazol-5-yl]pyrimidin-2-yl}amino)-N-[4-(methylthio)phenyl]piperidine-1-carboxamide]
24 | 940 nM | CC(C)NC(=O)N1CCC(Nc2nccc(-c3c(-c4cccc(O)c4)nc4sccn34)n2)CC1 [Example 351, 4-({4-[6-(3-hydroxyphenyl)imidazo[2,1-b][1,3]thiazol-5-yl]pyrimidin-2-yl}amino)-N-isopropylpiperidine-1-carboxamide]
25 | 1190 nM | O=C(O)c1cccc(-c2nc3sccn3c2-c2ccnc(N[C@@H]3CCCN(S(=O)(=O)c4ccc(Cl)cc4)C3)n2)c1 [Example 382, 3-{5-[2-({(3R)-1-[(4-chlorophenyl)sulfonyl]piperidin-3-yl}amino)pyrimidin-4-yl]imidazo[2,1-b][1,3]thiazol-6-yl}benzoic acid]
26 | 126 nM | O=S(=O)(c1ccc(Cl)cc1)N1CCC(Nc2nccc(-c3c(-c4cccc(O)c4)nc4occn34)n2)CC1 [Example 321, 3-{5-[2-({1-[(4-chlorophenyl)sulfonyl]piperidin-4-yl}amino)pyrimidin-4-yl]imidazo[2,1-b][1,3]oxazol-6-yl}phenol]
27 | 1630 nM | N#Cc1cccc(-c2nc3sccn3c2-c2ccnc(NC3CCN(S(=O)(=O)c4ccc(Cl)cc4)CC3)n2)c1 [Example 269, 3-{5-[2-({1-[(4-chlorophenyl)sulfonyl]piperidin-4-yl)amino)pyrimidin-4-yl]imidazo[2,1-b][1,3]thiazol-6-yl}benzonitrile]
28 | 428 nM | CCNC(=O)N1CCC(Nc2nccc(-c3c(-c4ccc(F)cc4)nc4occn34)n2)CC1 [Example 156, N-ethyl-4-({4-[6-(4-fluorophenyl)imidazo[2,1-b][1,3]oxazol-5-yl]pyrimidin-2-yl}amino)piperidine-1-carboxamide]
